The test system of the assay is production of CD69 by B lymphocytes in human whole blood. Description: CD69 Whole Blood Assay (CD69 Hu Blood FACS). The class given is cell-based. Conditions: human whole blood activated with goat F(ab')2 anti-human IgM, 20 hours, CD69 on CD20 positive cells by FACS. From the text: A CD69 Whole Blood Assay can be conducted on Formula I compounds to determine the ability of compounds to inhibit the production of CD69 by B lymphocytes in human whole blood activated by crosslinking surface IgM with goat F(ab′)2 anti-human IgM (Example 907). CD69 is a type II C-type lectin involved in lymphocyte migration and cytokine secretion. CD69 expression represents one of the earliest available indicators of leukocyte activation and its rapid induction occurs through transcriptional activation (Vazquez et al (2009) Jour. of Immunology Published Oct. 19, 2009, doi:10.4049/jimmunol.0900839). Concentration-dependent inhibition of antigen receptor stimulation by selective Btk inhibitors induces cell surface expression of the lymphocyte activation marker CD69 (Honigberg et al (2010) Proc. Natl. Acad. Sci. 107(29):13075-13080). Thus, CD69 inhibition by selective Btk inhibitors may be correlated with therapeutic efficacy of certain B-cell disorders.
Human blood is obtained from healthy volunteers, with the following restrictions: 1 week drug-free, non-smokers. Blood (approximately 20 mls to test 8 compounds) is collected by venipuncture into Vacutainer® (Becton, Dickinson and Co.) tubes with sodium heparin.
Solutions of Formula I and II compounds at 10 mM in DMSO are diluted 1:10 in 100% DMSO, then are diluted by three-fold serial dilutions in 100% DMSO for a ten point dose-response curve. The compounds are further diluted 1:10 in PBS and then an aliquot of 5.5 μl of each compound is added in duplicate to a 2 ml 96-well plate; 5.5 μl of 10% DMSO in PBS is added as control and no-stimulus wells. Human whole blood —HWB (100 μl) is added to each well. After mixing the plates are incubated at 37° C., 5% CO2, 100% humidity for 30 minutes. Goat F(ab′)2 anti-human IgM (10 μl of a 500 μg/ml solution, 50 μg/ml final) is added to each well (except the no-stimulus wells) with mixing and the plates are incubated for an additional 20 hours. At the end of the 20 hour incubation, samples are incubated with fluorescent labeled antibodies for 30 minutes, at 37° C., 5% CO2, 100% humidity. Include induced control, unstained and single stains for compensation adjustments and initial voltage settings. Samples are then lysed with PharM Lyse™ (BD Biosciences Pharmingen) according to the manufacturer's instructions. Samples are then transferred to a 96 well plate suitable to be run on the BD Biosciences HTS 96 well system on the LSRII machine. Data acquired and Mean Fluorescence Intensity values were obtained using BD Biosciences DIVA Software. Results are initially analyzed by FACS analysis software (Flow Jo). […] The inhibitory concentration (IC50, IC70, IC90) values are calculated by Prism version 5, using a nonlinear regression curve fit.

SMILES strings stand for the structures.

In the case of `CCn1ccc(Nc2cc(-c3ccnc(-n4ncc5cc(C(C)(C)C)cc(F)c5c4=O)c3CO)cn(C)c2=O)n1` [Compound 142, 6-tert-butyl-2-[4-[5-[(1-ethylpyrazol-3-yl)amino]-1-methyl-6-oxo-3-pyridyl]-3-(hydroxymethyl)-2-pyridyl]-8-fluoro-phthalazin-1-one], the CD69 Hu Blood FACS (IC70) (Table 2) amounted to 168 nM. Still for that read-out and setting: to `Cn1cnc(Nc2cc(-c3ccnc(-n4ncc5cc(C(C)(C)C)cc(F)c5c4=O)c3CO)cn(C)c2=O)c1` [Compound 130, 6-tert-butyl-8-fluoro-2-[3-(hydroxymethyl)-4-[1-methyl-5-[(1-methylimidazol-4-yl)amino]-6-oxo-3-pyridyl]-2-pyridyl]phthalazin-1-one] belongs 152 nM. In the case of `Cn1cc(-c2ccnc(-n3ncc4cc(C(C)(C)C)cc(F)c4c3=O)c2CO)cc(Nc2ccncn2)c1=O` [Compound 113, 6-tert-butyl-8-fluoro-2-[3-(hydroxymethyl)-4-[1-methyl-6-oxo-5-(pyrimidin-4-ylamino)-3-pyridyl]-2-pyridyl]phthalazin-1-one], for the setting “Table 2”, the CD69 Hu Blood FACS (IC70) came out at 82.3 nM. Turning to `C[C@H]1CN(C2COC2)CCN1c1ccc(Nc2cc(-c3ccnc(-n4ncc5cc(C(C)(C)C)cc(F)c5c4=O)c3CO)cn(C)c2=O)nc1` [Compound 105, (S)-6-tert-butyl-8-fluoro-2-(3-(hydroxymethyl)-4-(1-methyl-5-(5-(2-methyl-4-(oxetan-3-yl)piperazin-1-yl)pyridin-2-ylamino)-6-oxo-1,6-dihydropyridin-3-yl)pyridin-2-yl)phthalazin-1(2H)-one], the CD69 Hu Blood FACS (IC70) (Table 1) stood at 6 nM. As to `CCn1nc(Nc2cc(-c3ccnc(-n4ncc5cc(C(C)(C)C)cc(F)c5c4=O)c3CO)cn(C)c2=O)cc1C` [Compound 118, 6-tert-butyl-2-[4-[5-[(1-ethyl-5-methyl-pyrazol-3-yl)amino]-1-methyl-6-oxo-3-pyridyl]-3-(hydroxymethyl)-2-pyridyl]-8-fluoro-phthalazin-1-one], under “Table 2”, the CD69 Hu Blood FACS (IC70) worked out at 112 nM. Turning to `C[C@@H]1CN(c2ccc(Nc3cc(-c4ccnc(-n5ncc6cc(C(C)(C)C)cc(F)c6c5=O)c4CO)cn(C)c3=O)nc2)[C@@H](C)CN1C1COC1` [Compound 110, 6-tert-butyl-2-(4-(5-(5-((2S,5R)-2,5-dimethyl-4-(oxetan-3-yl)piperazin-1-yl)pyridin-2-ylamino)-1-methyl-6-oxo-1,6-dihydropyridin-3-yl)-3-(hydroxymethyl)pyridin-2-yl)-8-fluorophthalazin-1(2H)-one], under “Table 1”, the CD69 Hu Blood FACS (IC70) was 5.9 nM. `Cc1cc(Nc2cc(-c3ccnc(-n4ncc5cc(C(C)(C)C)cc(F)c5c4=O)c3CO)cn(C)c2=O)ns1` [Compound 157, 6-tert-butyl-8-fluoro-2-[3-(hydroxymethyl)-4-[1-methyl-5-[(5-methylisothiazol-3-yl)amino]-6-oxo-3-pyridyl]-2-pyridyl]phthalazin-1-one] came in with a CD69 Hu Blood FACS (IC70) (Table 2) of 157 nM. The compound `Cn1nc(-c2ccnc(-n3ncc4cc(C(C)(C)C)cc(F)c4c3=O)c2CO)cc(Nc2ccc(C(=O)N3CCOCC3)cn2)c1=O` [Compound 116, 6-tert-butyl-8-fluoro-2-[3-(hydroxymethyl)-4-[1-methyl-5-[[5-(morpholine-4-carbonyl)-2-pyridyl]amino]-6-oxo-pyridazin-3-yl]-2-pyridyl]phthalazin-1-one] came in with a CD69 Hu Blood FACS (IC70) (Table 2) of 93.5 nM.

`Cc1cnc(Nc2cc(-c3ccnc(-n4ncc5cc(C(C)(C)C)cc(F)c5c4=O)c3CO)cn(C)c2=O)s1` [Compound 120, 6-tert-butyl-8-fluoro-2-[3-(hydroxymethyl)-4-[1-methyl-5-[(5-methylthiazol-2-yl)amino]-6-oxo-3-pyridyl]-2-pyridyl]phthalazin-1-one] gave a CD69 Hu Blood FACS (IC70) (Table 2) of 139 nM.

For `Cc1cc(Nc2cc(-c3ccnc(-n4ncc5cc(C(C)(C)C)cc(F)c5c4=O)c3CO)nn(C)c2=O)nn1C` [Compound 127, 6-tert-butyl-2-[4-[5-[(1,5-dimethylpyrazol-3-yl)amino]-1-methyl-6-oxo-pyridazin-3-yl]-3-(hydroxymethyl)-2-pyridyl]-8-fluoro-phthalazin-1-one], the CD69 Hu Blood FACS (IC70) (Table 2) was determined as 115 nM.

On to `CN1CCc2nc(Nc3cc(-c4ccnc(-n5ncc6cc(C(C)(C)C)cc(F)c6c5=O)c4CO)cn(C)c3=O)sc2C1` [Compound 115, 6-tert-butyl-8-fluoro-2-[3-(hydroxymethyl)-4-[1-methyl-5-[(5-methyl-6,7-dihydro-4H-thiazolo[5,4-c]pyridin-2-yl)amino]-6-oxo-3-pyridyl]-2-pyridyl]phthalazin-1-one], for which, where the note is “Table 2”, the CD69 Hu Blood FACS (IC70) was 73.2 nM. Consider `Cn1cc(-c2cc(F)cc(-n3ncc4cc(C(C)(C)C)cc(F)c4c3=O)c2CO)cc(Nc2ccc(N3CCN(C4COC4)CC3)cn2)c1=O` [Compound 102, 6-tert-butyl-8-fluoro-2-(5-fluoro-2-(hydroxymethyl)-3-(1-methyl-5-(5-(4-(oxetan-3-yl)piperazin-1-yl)pyridin-2-ylamino)-6-oxo-1,6-dihydropyridin-3-yl)phenyl)phthalazin-1(2H)-one], for which the CD69 Hu Blood FACS (IC70) (Table 1) was 12 nM. Under “Table 2”, `COCCN1CCn2nc(Nc3cc(-c4ccnc(-n5ncc6cc(C(C)(C)C)cc(F)c6c5=O)c4CO)cn(C)c3=O)cc2C1` [Compound 133, 6-tert-butyl-8-fluoro-2-[3-(hydroxymethyl)-4-[5-[[5-(2-methoxyethyl)-6,7-dihydro-4H-pyrazolo[1,5-a]pyrazin-2-yl]amino]-1-methyl-6-oxo-3-pyridyl]-2-pyridyl]phthalazin-1-one] gave a CD69 Hu Blood FACS (IC70) of 14.5 nM. The same measure, in the same setting: to `Cn1nc(-c2ccnc(-n3ncc4cc(C(C)(C)C)cc(F)c4c3=O)c2CO)cc(Nc2cc3n(n2)CCN(C2COC2)C3)c1=O` [Compound 155, 6-tert-butyl-8-fluoro-2-[3-(hydroxymethyl)-4-[1-methyl-5-[[5-(oxetan-3-yl)-6,7-dihydro-4H-pyrazolo[1,5-a]pyrazin-2-yl]amino]-6-oxo-pyridazin-3-yl]-2-pyridyl]phthalazin-1-one] belongs 26.6 nM.

As for `CN1Cc2cc(Nc3cc(-c4ccnc(-n5ncc6cc(C(C)(C)C)cc(F)c6c5=O)c4CO)cn(C)c3=O)nn2CC1=O` [Compound 146, 6-tert-butyl-8-fluoro-2-[3-(hydroxymethyl)-4-[1-methyl-5-[(5-methyl-6-oxo-4,7-dihydropyrazolo[1,5-a]pyrazin-2-yl)amino]-6-oxo-3-pyridyl]-2-pyridyl]phthalazin-1-one], the CD69 Hu Blood FACS (IC70) (Table 2) was 20.9 nM. The same measure, in the same setting: to `CCc1cc(Nc2cc(-c3ccnc(-n4ncc5cc(C(C)(C)C)cc(F)c5c4=O)c3CO)cn(C)c2=O)no1` [Compound 158, 6-tert-butyl-2-[4-[5-[(5-ethylisoxazol-3-yl)amino]-1-methyl-6-oxo-3-pyridyl]-3-(hydroxymethyl)-2-pyridyl]-8-fluoro-phthalazin-1-one] belongs 66.7 nM. Same read-out and setting: to `Cc1cc(Nc2cc(-c3ccnc(-n4ncc5cc(C(C)(C)C)cc(F)c5c4=O)c3CO)cn(C)c2=O)nn1C` [Compound 119, 6-tert-butyl-2-[4-[5-[(1,5-dimethylpyrazol-3-yl)amino]-1-methyl-6-oxo-3-pyridyl]-3-(hydroxymethyl)-2-pyridyl]-8-fluoro-phthalazin-1-one] belongs 24.7 nM. The compound `Cc1cc(Nc2cc(-c3ccnc(-n4ncc5cc(C(C)(C)C)cc(F)c5c4=O)c3CO)cn(C)c2=O)n[nH]1` [Compound 121, 6-tert-butyl-8-fluoro-2-[3-(hydroxymethyl)-4-[1-methyl-5-[(5-methyl-1H-pyrazol-3-yl)amino]-6-oxo-3-pyridyl]-2-pyridyl]phthalazin-1-one] gave a CD69 Hu Blood FACS (IC70) (Table 2) of 79.3 nM. Turning to `Cn1cc(-c2ccnc(-n3ncc4cc(C(C)(C)C)cc(F)c4c3=O)c2CO)cc(Nc2ccc(N3CCN(C4COC4)CC3)cn2)c1=O` [Compound 103, 6-tert-butyl-8-fluoro-2-(3-(hydroxymethyl)-4-(1-methyl-5-(5-(4-(oxetan-3-yl)piperazin-1-yl)pyridin-2-ylamino)-6-oxo-1,6dihydropyridin-3-yl)pyridin-2-yl)phthalazin-1(2H)-one], where the note is “Table 1”, the CD69 Hu Blood FACS (IC70) was determined as 13 nM.

The values are drawn from patent US8669251B2, “8-fluorophthalazin-1(2H)-one compounds” (Genentech, Inc., priority 2011, dated 2014).
